According to patent US7396846B2, “Growth hormone secretagogues” (Eli Lilly and Company, priority 2002, dated 2008):
Where a name gives a salt, the structure may show the parent alone.

Tested on: pituitary cells
Test: Pituitary Cell Culture Assay for Growth Hormone (GH) Secretion
Format: cell-based
Conditions: stimulation of GH secretion, cultured rat anterior pituitary cells, 45 min at room temperature, rat GH radioimmunoassay
Source text: Growth hormone secretagogue activity can be determined using a typical assay which may employ pituitary cells established in culture, followed by a challenge with the various compounds of formula I, and the levels of growth hormone determined accordingly. Growth hormone levels may be calculated using various radioimmunoassay techniques known to those of skill in the art. One example of such an assay is detailed herein.
Pituitary Cell Culture Assay for Growth Hormone (GH) Secretion
Fifteen 250 g male Sprague-Dawley rats are used for each assay. The animals are killed by decapitation and anterior pituitaries are removed and placed into ice cold culture medium. The pituitaries are sectioned in small pieces and enzymatically digested using trypsin (Difco) to weaken connective tissue. Pituitary cells are dispersed by mechanical agitation, collected, pooled and then seeded into 96-well plates (50,000 cells/well). After 5 days of culture, the cells formed as monolayer (70-80% confluent). Cells are then washed with medium (without phenol red) and incubated for 90 min at 37° C. Afterwards the cells are challenged to secrete GH by the addition of GH secretagogues to the medium. After 45 min at room temperature, the medium is removed, filtered and stored frozen until radioimmunoassays for rat GH were performed. Doses of secretagogue are added in triplicates. Compounds disclosed herein are active in the assay as described. The compounds cause a stimulation of GH secretion resulting in at least 20% increase of the basal level of GH with and EC50<500 nM. […] Both EC50 and efficacy values were calculated by the 4-parameter logistic equation. Such values were pooled and represented as mean+/−standard error, when appropriate.

`CN(CC1=C(c2ccc(Cl)cc2)S(=O)(=O)NC1(C)C)C(=O)[C@@H](COCc1ccc(F)cc1)NC(=O)C(C)(C)N` [Example 7, 2-(R)-2-(2-Amino-2-methylpropionylamino)-3-(4-fluorophenyl)methoxy propionic acid N-[5-(4-chlorophenyl)-3,3-dimethyl-1,1-dioxo-2,3-dihydroisothiazol-4-ylmethyl]-N-methylamide Hydrochloride] was tested, and the EC50 (0.75 h) was 1.7 nM.

For `CCN(CC1=C(c2ccc(S(C)(=O)=O)cc2)S(=O)(=O)NC12CCCCC2)C(=O)[C@@H](COCc1cc(F)cc(F)c1)NC(=O)C(C)(C)N` [Example 5, 2-(R)-2-(2-Amino-2-methylpropionylamino)-3-(3,5-difluorophenyl)methoxypropionic acid N-ethyl-N-(3-(4-methanesulfonyl-phenyl)-2,2-dioxo-2-thia-1-azaspiro[4.5]dec-3-ene-4-ylmethyl)amide Hydrochloride], the EC50 (0.75 h) was 0.6 nM.

`CCN(CC1=C(c2ccc(S(C)(=O)=O)cc2)S(=O)(=O)NC12CCCCC2)C(=O)[C@@H](COCc1cc(F)ccc1F)NC(=O)C(C)(C)N` [Example 2, 2-(R)-2-(2-Amino-2-methylpropionylamino)-3-(2,5-difluorophenyl)methoxypropionic acid N-ethyl-N-(3-(4-methanesulfonyl-phenyl)-2,2-dioxo-2-thia-1-azaspiro[4.5]dec-3-ene-4-ylmethyl)amide Hydrochloride] gave an EC50 (0.75 h) of 0.23 nM.

For `CCN(CC1=C(c2ccc(S(C)(=O)=O)cc2)S(=O)(=O)NC12CCCCC2)C(=O)[C@@H](COCc1ccc(F)c(F)c1)NC(=O)C(C)(C)N` [Example 4, 2-(R)-2-(2-Amino-2-methylpropionylamino)-3-(3,4-difluorophenyl)methoxypropionic acid N-ethyl-N-(3-(4-methanesulfonyl-phenyl)-2,2-dioxo-2-thia-1-azaspiro[4.5]dec-3-ene-4-ylmethyl)amide Hydrochloride], the EC50 (0.75 h) was 0.9 nM.

`CCN(CC1=C(c2ccc(Cl)cc2)S(=O)(=O)NC1(C)C)C(=O)[C@@H](COCc1ccc(F)cc1F)NC(=O)C(C)(C)N` [Example 12, 2-(R)-2-(2-Amino-2-methylpropionylamino)-3-(2,4-difluorophenyl)methoxy propionic acid N-[5-(4-chlorophenyl)-3,3-dimethyl-1,1-dioxo-2,3-dihydroisothiazol-4-ylmethyl]-N-ethylamide Hydrochloride] showed an EC50 of 8 nM.

Compound `CCN(CC1=C(c2ccc(Cl)cc2)S(=O)(=O)NC1(C)C)C(=O)[C@@H](COCc1cc(F)ccc1F)NC(=O)C(C)(C)N` [Example 15, 2-(R)-2-(2-Amino-2-methylpropionylamino)-3-(2,5-difluorophenyl)methoxy propionic acid N-[5-(4-chlorophenyl)-3,3-dimethyl-1,1-dioxo-2,3-dihydroisothiazol-4-ylmethyl]-N-ethylamide Hydrochloride] has an EC50 of 2.1 nM.

`CCN(CC1=C(c2ccc(Cl)cc2)S(=O)(=O)NC1(C)C)C(=O)[C@@H](COCc1c(F)cccc1F)NC(=O)C(C)(C)N` [Example 16, 2-(R)-2-(2-Amino-2-methylpropionylamino)-3-(2,6-difluorophenyl)methoxy propionic acid N-[5-(4-chlorophenyl)-3,3-dimethyl-1,1-dioxo-2,3-dihydroisothiazol-4-ylmethyl]-N-ethylamide Hydrochloride] was tested, and the EC50 was 1.1 nM.
